“And” between values parts separate entries of the source, which are not always exact repeats. Identical values can stand only once. Marks after values point to notes of the source that are not given here.
Assays:
[1] = Multiple rising dose Phase 1 pharmacokinetics; format: in vivo, human
Description: The steady state AUC geometric mean accumulation ratios were ˜2 in young male subjects and ˜2.8 in elderly subjects (male and female).
Although exposures were similar in middle-aged males when compared to young males, plasma concentrations were higher in elderly compared to middle-aged and young subjects. […] Furthermore, the steady state AUC geometric mean accumulation ratios were ˜2 in young males and ˜2.8 in the elderly.

[2] = tested on: QTc interval; details: human, in vivo, 400 mg
[3] = PK in patients with moderate hepatic impairment; details: single dose 100 mg
[4] = tested on: patients with OAB; test: Phase 3 open-label 52-week study in OAB; format: in vivo, human; details: 50 mg or 100 mg once daily, 52-week treatment period
Method: After eight weeks, the dose could be increased to 100 mg once daily as clinically indicated.

[5] = PK in patients with renal impairment; details: for AUC0-inf, geometric least squares mean / Apparent terminal t1/2, geometric mean (% geometric CV) / CL/F, geometric least squares mean / CLR, geometric mean (% geometric CV) / Cmax, geometric least squares mean / Fe[urine]48 hr, geometric mean (% geometric CV) / Tmax (median): single dose 100 mg
Description: The relationship between clearance and renal function was modeled using linear regression.

[6] = target: T1, β1-AR (Homo sapiens, UniProt P08588); test: Competition binding assay, membranes with recombinant β1-AR
T1 construct: expressed in transfected cells; membranes prepared from them
T1 sequence (P08588 whole entry): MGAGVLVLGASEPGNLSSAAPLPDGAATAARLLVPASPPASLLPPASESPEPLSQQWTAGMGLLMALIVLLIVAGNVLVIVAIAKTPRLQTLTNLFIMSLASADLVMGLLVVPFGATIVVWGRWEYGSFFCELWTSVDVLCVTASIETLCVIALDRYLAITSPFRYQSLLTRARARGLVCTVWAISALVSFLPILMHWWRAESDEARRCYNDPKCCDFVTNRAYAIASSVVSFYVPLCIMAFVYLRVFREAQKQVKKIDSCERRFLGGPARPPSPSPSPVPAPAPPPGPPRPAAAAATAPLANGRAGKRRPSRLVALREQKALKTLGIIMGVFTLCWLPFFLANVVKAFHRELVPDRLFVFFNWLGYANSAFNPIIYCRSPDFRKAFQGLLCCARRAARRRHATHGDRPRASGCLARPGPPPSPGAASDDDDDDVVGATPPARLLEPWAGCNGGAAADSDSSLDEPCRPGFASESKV

[7] = multiple dose 150 mg, after 14 days, healthy young males
[8] = multiple dose 150 mg, after 14 days, middle-aged female
[9] = multiple dose 150 mg, after 14 days, middle-aged male
[10] = multiple dose 200 mg, after 14 days, Japanese healthy young males
[11] = multiple dose 200 mg, after 14 days, healthy young males
[12] = multiple dose 300 mg, after 14 days, healthy young males
[13] = multiple dose 400 mg, after 14 days, healthy young males
[14] = healthy matched control subjects

With `O=C(Nc1ccc(C[C@@H]2CC[C@H]([C@H](O)c3ccccc3)N2)cc1)[C@@H]1CCc2nccc(=O)n21` [Vibegron, (6S)—N-[4-[[(2S,5R)-5-[(R)-hydroxy(phenyl)methyl]pyrrolidin-2-yl]methyl]phenyl]-4-oxo-7,8-dihydro-6H-pyrrolo[1,2-a]pyrimidine-6-carboxamide] the Cmax [1, 7] was 305 ± 215 ng/mL, the “t1/2 (harmonic mean ± pseudo SD)” value [1, 7] was 79.2 ± 9.2 h and the Cmax [1, 8] was 246 ± 139 ng/mL. For the same molecule, the “t1/2 (harmonic mean ± pseudo SD)” value [1, 8] was 83.1 ± 17.2 h, the AUC0-24 [1, 9] was 2170 ± 452 ng·h/mL and the Cmax [1, 9] was 293 ± 67.1 ng/mL. The “t1/2 (harmonic mean ± pseudo SD)” value ([1]; multiple dose 150 mg, middle-aged male, determined after 28 days of dosing) was 72.7 ± 16.1^d hr, the AUC0-24 [1, 10] was 4370 ± 618 ng·h/mL and the Cmax [1, 10] was 631 ± 154 ng/mL. For the same molecule, the “t1/2 (harmonic mean ± pseudo SD)” value [1, 10] was 59.5 ± 1.9 h, the AUC0-24 [1, 11] was 3200 ± 1120 ng·h/mL and the Cmax [1, 11] was 313 ± 168 ng/mL. For the same molecule, the “t1/2 (harmonic mean ± pseudo SD)” value [1, 11] was 64.7 ± 6.5 h, the AUC0-24 [1, 12] was 6980 ± 1040 ng·h/mL and the “t1/2 (harmonic mean ± pseudo SD)” value [1, 12] was 61.7 ± 7.3 h. For the same molecule, the AUC0-24 [1, 13] was 10500 ± 2140 ng·h/mL, the Cmax [1, 13] was 1400 ± 257 ng/mL and the “t1/2 (harmonic mean ± pseudo SD)” value [1, 13] was 58.9 ± 5.9 h. For the same molecule, the “time to steady state concentrations” value ([1]; once daily dosing) was at most 7 days, the “higher exposures (AUC) in females compared with males” value ([1]; regardless of age) was 50% and the “Cmax increased in elderly Japanese vs elderly non-Japanese” value ([1]; steady state) was 82%. The “AUC, mean ± SD” value [2] was 6800 ± 2300 ng·h/mL, the “AUC0-inf, geometric least squares mean” value [3, 14] was 1440 ng·h/mL and the “CL/F, geometric mean (% geometric CV)” value [3, 14] was 68.3 (36.0%) L/hr. The “Cmax, geometric least squares mean” value [3, 14] was 125 ng/mL, the “AUC0-inf, geometric least squares mean” value ([3]; moderate hepatic impairment) was 1820 ng·h/mL and the “Apparent terminal t1/2, geometric mean (% geometric CV)” value ([3]; moderate hepatic impairment) was 94.5 (8.88%) hr. For the same molecule, the “CL/F, geometric mean (% geometric CV)” value ([3]; moderate hepatic impairment) was 56.0 (31.2%) L/hr, the “Cmax, geometric least squares mean” value ([3]; moderate hepatic impairment) was 168 ng/mL and the long-term efficacy [4] was “reduced episodes of micturitions, UUI episodes, total incontinence episodes, and urgency episodes”. The “AUC0-inf higher than healthy matched controls” value ([5]; mild renal impairment) was 49%, the “CLR reduced compared to healthy matched controls” value (shortened to “CLR reduced”) ([5]; mild renal impairment) was 39% and the “Cmax higher than healthy matched controls” value ([5]; mild renal impairment) was 96%. The “AUC0-inf higher than healthy matched controls” value ([5]; moderate renal impairment) was 106%, the “CLR reduced” value ([5]; moderate renal impairment) was 65% and the “Cmax higher than healthy matched controls” value ([5]; moderate renal impairment) was 68%. The “AUC0-inf higher than healthy matched controls” value ([5]; severe renal impairment) was 83%, the “CLR reduced” value ([5]; severe renal impairment) was 82% and the “Cmax higher than healthy matched controls” value ([5]; severe renal impairment) was 42%. The “AUC0-inf, geometric least squares mean” value [5, 14] was 1540 ng·h/mL, the “Apparent terminal t1/2, geometric mean (% geometric CV)” value [5, 14] was 98.8 (13.9) hr and the “CL/F, geometric least squares mean” value [5, 14] was 64.9 L/h. For the same molecule, the “CLR, geometric mean (% geometric CV)” value [5, 14] was 10.4 (20.2) L/hr, the “Cmax, geometric least squares mean” value [5, 14] was 107 ng/mL and the “Fe[urine]48 hr, geometric mean (% geometric CV)” value [5, 14] was 7.9% and 7.9 (43.0) %. The “Apparent terminal t1/2, geometric mean (% geometric CV)” value ([5]; mild renal impairment) was 96.2 (11.5) hr, the “CL/F, geometric least squares mean” value ([5]; mild renal impairment) was 43.6 L/h and the “CLR, geometric mean (% geometric CV)” value ([5]; mild renal impairment) was 6.3 (31.1)^c L/hr. For the same molecule, the “Cmax, geometric least squares mean” value ([5]; mild renal impairment) was 210 ng/mL, the “Fe[urine]48 hr, geometric mean (% geometric CV)” value ([5]; mild renal impairment) was 8.5% and 8.5 (43.9)^c % and the “AUC0-inf, geometric least squares mean” value ([5]; moderate renal impairment) was 3170 ng·h/mL. For the same molecule, the “Apparent terminal t1/2, geometric mean (% geometric CV)” value ([5]; moderate renal impairment) was 108 (21.0) hr, the “CL/F, geometric least squares mean” value ([5]; moderate renal impairment) was 31.5 L/h and the “CLR, geometric mean (% geometric CV)” value ([5]; moderate renal impairment) was 3.6 (34.5) L/hr. For the same molecule, the “Fe[urine]48 hr, geometric mean (% geometric CV)” value ([5]; moderate renal impairment) was 5.5% and 5.5 (53.2) %, the “Tmax (median)” value ([5]; moderate renal impairment) was 1.3 h and the “AUC0-inf, geometric least squares mean” value ([5]; severe renal impairment) was 2820 ng·h/mL. The “Apparent terminal t1/2, geometric mean (% geometric CV)” value ([5]; severe renal impairment) was 131 (10.0) hr, the “CL/F, geometric least squares mean” value ([5]; severe renal impairment) was 35.5 L/h and the “CLR, geometric mean (% geometric CV)” value ([5]; severe renal impairment) was 1.9 (30.9) L/hr. For the same molecule, the “Cmax, geometric least squares mean” value ([5]; severe renal impairment) was 152 ng/mL, the “Fe[urine]48 hr, geometric mean (% geometric CV)” value ([5]; severe renal impairment) was 2.1% and 2.1 (57.6) % and the “Tmax (median)” value ([5]; severe renal impairment) was 0.5 h. For the same molecule, the “CL/F increase per one mL/min/1.73 m^2 increase in eGFR” value ([5]; slope of linear regression) was about 0.8% and the “binding to β1-AR” value [6] was “does not bind”.

From patent US20230218624A1 (Urovant Sciences GmbH, priority 2017, published 2023)
